Source: patent US20230074545A1, “TREATMENT OF CANCER WITH CDK12/13 INHIBITORS” (Kinnate Biopharma Inc., priority 2019, published 2023)

Assays:
Assay in all cases: Radiometric kinase panel
Format in all cases: biochemical
SIK3 = target: T1, SIK3 (Homo sapiens, UniProt Q9Y2K2)
T1 construct: either as full-length or enzymatically active fragments; purchased ProQinase GmbH (Reaction Biology)
Outline: (§1)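 Activity was measured radiometrically from [gamma-33P]-ATP incorporation into substrate. The kinases were recombinant human GST- or His-tagged proteins, full-length or active fragments, expressed in Sf9 or E. coli. Compound in 10% DMSO was added before the enzyme/substrate mix, which started the reaction.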

DYRK1A = target: T2, DYRK1A (Homo sapiens, UniProt Q13627)
T2 construct: either as full-length or enzymatically active fragments; purchased ProQinase GmbH (Reaction Biology)
Outline: as §1

WNK3 = target: T3, WNK3 (Homo sapiens, UniProt Q9BYP7)
T3 construct: either as full-length or enzymatically active fragments; purchased ProQinase GmbH (Reaction Biology)
Outline: as §1

PASK = target: T4, PASK (Homo sapiens, UniProt Q96RG2)
T4 construct: either as full-length or enzymatically active fragments; purchased ProQinase GmbH (Reaction Biology)
T4 sequence (Q96RG2 whole entry, the tested form may be a part): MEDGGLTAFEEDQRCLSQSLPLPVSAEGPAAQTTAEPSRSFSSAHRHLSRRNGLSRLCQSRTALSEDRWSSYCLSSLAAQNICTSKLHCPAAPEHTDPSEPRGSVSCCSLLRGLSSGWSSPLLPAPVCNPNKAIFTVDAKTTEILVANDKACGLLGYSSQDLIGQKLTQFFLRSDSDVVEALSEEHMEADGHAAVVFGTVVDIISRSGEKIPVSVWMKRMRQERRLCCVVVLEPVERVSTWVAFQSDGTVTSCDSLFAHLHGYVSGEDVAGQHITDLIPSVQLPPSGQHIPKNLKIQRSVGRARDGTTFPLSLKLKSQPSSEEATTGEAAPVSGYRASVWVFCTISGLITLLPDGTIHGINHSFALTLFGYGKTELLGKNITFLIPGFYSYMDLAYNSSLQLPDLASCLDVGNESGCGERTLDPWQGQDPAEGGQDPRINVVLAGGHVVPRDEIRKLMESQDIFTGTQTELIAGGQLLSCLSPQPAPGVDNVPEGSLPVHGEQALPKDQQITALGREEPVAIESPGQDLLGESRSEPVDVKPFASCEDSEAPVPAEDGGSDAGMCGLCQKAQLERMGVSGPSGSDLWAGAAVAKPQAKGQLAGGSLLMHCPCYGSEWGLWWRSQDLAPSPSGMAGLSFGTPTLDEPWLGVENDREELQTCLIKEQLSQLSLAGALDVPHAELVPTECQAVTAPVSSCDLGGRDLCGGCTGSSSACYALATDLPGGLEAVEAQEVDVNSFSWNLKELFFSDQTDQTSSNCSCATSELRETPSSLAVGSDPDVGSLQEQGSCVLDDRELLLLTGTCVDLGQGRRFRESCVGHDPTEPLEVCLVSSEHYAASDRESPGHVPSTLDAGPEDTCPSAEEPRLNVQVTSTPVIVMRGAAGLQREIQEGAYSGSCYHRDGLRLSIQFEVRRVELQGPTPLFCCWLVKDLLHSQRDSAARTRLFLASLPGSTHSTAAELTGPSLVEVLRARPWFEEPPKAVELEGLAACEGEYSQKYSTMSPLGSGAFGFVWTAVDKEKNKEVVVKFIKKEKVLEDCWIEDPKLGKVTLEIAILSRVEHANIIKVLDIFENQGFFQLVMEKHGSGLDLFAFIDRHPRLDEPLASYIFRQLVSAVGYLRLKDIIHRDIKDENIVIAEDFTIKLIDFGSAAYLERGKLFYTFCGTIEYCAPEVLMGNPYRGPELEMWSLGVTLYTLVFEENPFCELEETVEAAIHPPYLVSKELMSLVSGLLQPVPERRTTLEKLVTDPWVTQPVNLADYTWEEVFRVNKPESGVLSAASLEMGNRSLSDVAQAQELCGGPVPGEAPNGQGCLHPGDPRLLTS
Outline: as §1

CHK1 = target: T5, CHK1 (Homo sapiens, UniProt O14757)
T5 construct: either as full-length or enzymatically active fragments; purchased ProQinase GmbH (Reaction Biology)
Outline: as §1

ERBB2 = target: T6, ERBB2 (Homo sapiens, UniProt P04626)
T6 construct: either as full-length or enzymatically active fragments; purchased ProQinase GmbH (Reaction Biology)
Outline: as §1

PKCeta = target: T7, PKCeta (Homo sapiens, UniProt P24723)
T7 construct: either as full-length or enzymatically active fragments; purchased ProQinase GmbH (Reaction Biology); host or cells: Sf9 insect cells or E. coli
T7 sequence (P24723 whole entry, the tested form may be a part): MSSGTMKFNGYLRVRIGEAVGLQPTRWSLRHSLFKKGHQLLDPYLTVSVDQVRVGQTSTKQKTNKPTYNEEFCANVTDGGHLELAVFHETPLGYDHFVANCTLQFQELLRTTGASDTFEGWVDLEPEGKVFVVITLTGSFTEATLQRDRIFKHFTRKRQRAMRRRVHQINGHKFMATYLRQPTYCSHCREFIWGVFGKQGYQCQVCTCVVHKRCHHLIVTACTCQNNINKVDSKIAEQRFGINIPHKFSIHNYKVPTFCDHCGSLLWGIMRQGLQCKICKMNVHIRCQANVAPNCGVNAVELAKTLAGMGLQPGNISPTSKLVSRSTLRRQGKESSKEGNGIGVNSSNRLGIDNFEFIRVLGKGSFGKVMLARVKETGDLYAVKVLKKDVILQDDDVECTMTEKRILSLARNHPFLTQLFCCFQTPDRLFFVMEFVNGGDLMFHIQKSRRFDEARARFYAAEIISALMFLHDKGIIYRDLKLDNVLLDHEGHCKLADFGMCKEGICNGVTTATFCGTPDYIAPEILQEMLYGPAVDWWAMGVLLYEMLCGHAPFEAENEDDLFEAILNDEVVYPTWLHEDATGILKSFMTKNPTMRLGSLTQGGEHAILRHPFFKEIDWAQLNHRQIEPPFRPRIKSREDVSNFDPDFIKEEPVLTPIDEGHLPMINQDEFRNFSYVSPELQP
Outline: as §1

MAP4K5 = target: T8, MAP4K5 (Homo sapiens, UniProt Q9Y4K4)
T8 construct: purchased ProQinase GmbH (Reaction Biology)
Outline: as §1

TTBK1 = target: T9, TTBK1 (Homo sapiens, UniProt Q5TCY1)
T9 construct: either as full-length or enzymatically active fragments; purchased ProQinase GmbH (Reaction Biology)
Outline: as §1

INSR = target: T10, INSR (Homo sapiens, UniProt P06213)
T10 construct: either as full-length or enzymatically active fragments; purchased ProQinase GmbH (Reaction Biology); host or cells: Sf9 insect cells or E. coli (not specified per kinase)
Outline: as §1

LYN = target: T11, LYN (Homo sapiens, UniProt P07948)
T11 construct: either as full-length or enzymatically active fragments; purchased ProQinase GmbH (Reaction Biology)
Outline: as §1

STK33 = target: T12, STK33 (Homo sapiens, UniProt Q9BYT3)
T12 construct: either as full-length or enzymatically active fragments; purchased ProQinase GmbH (Reaction Biology)
Outline: as §1

TIE2 = target: T13, TIE2 (Homo sapiens, UniProt Q02763)
T13 construct: either as full-length or enzymatically active fragments; purchased ProQinase GmbH (Reaction Biology); host or cells: Sf9 insect cells or E. coli
Outline: as §1

PRKX = target: T14, PRKX (Homo sapiens, UniProt P51817)
T14 construct: either as full-length or enzymatically active fragments; purchased ProQinase GmbH (Reaction Biology)
Outline: as §1

PIM3 = target: T15, PIM3 (Homo sapiens, UniProt Q86V86)
T15 construct: either as full-length or enzymatically active fragments; purchased ProQinase GmbH (Reaction Biology)
Outline: as §1

p38beta = target: T16, p38beta (Homo sapiens, UniProt Q15759)
T16 construct: either as full-length or enzymatically active fragments; purchased ProQinase GmbH (Reaction Biology); host or cells: Sf9 insect cells or E. coli (not specified per kinase)
Outline: as §1

IKKepsilon = target: T17, IKKepsilon (Homo sapiens, UniProt Q14164)
T17 construct: either as full-length or enzymatically active fragments; purchased ProQinase GmbH (Reaction Biology)
Outline: as §1

CK1alpha1 = target: T18, CK1alpha1 (Homo sapiens, UniProt P48729)
T18 construct: either as full-length or enzymatically active fragments; purchased ProQinase GmbH (Reaction Biology); host or cells: Sf9 insect cells or E. coli
T18 sequence (P48729 whole entry, the tested form may be a part): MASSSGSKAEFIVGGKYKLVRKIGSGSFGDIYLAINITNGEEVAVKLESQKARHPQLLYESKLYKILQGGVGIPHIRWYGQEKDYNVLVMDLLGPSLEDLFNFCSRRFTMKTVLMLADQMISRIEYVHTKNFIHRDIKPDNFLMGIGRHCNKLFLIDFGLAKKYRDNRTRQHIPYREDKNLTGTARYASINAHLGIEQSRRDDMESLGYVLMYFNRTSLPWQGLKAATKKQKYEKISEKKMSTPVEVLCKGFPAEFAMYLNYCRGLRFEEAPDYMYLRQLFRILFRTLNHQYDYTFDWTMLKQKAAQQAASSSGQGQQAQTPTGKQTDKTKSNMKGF
Outline: as §1

GRK5 = target: T19, GRK5 (Homo sapiens, UniProt P34947)
T19 construct: either as full-length or enzymatically active fragments; purchased ProQinase GmbH (Reaction Biology)
Outline: as §1

PAK6 = target: T20, PAK6 (Homo sapiens, UniProt Q9NQU5)
T20 construct: either as full-length or enzymatically active fragments; purchased ProQinase GmbH (Reaction Biology)
Outline: as §1

SNARK = target: T21, SNARK (Homo sapiens, UniProt Q9H093)
T21 construct: purchased ProQinase GmbH (Reaction Biology)
Outline: as §1

EPHA7 = target: T22, EPHA7 (Homo sapiens, UniProt Q15375)
T22 construct: either as full-length or enzymatically active fragments; purchased ProQinase GmbH (Reaction Biology)
Outline: as §1

RPS6KA5 = target: T23, RPS6KA5 (Homo sapiens, UniProt O75582)
T23 construct: either as full-length or enzymatically active fragments; purchased ProQinase GmbH (Reaction Biology); host or cells: Sf9 insect cells or E. coli (not specified per kinase)
T23 sequence (O75582 whole entry, the tested form may be a part): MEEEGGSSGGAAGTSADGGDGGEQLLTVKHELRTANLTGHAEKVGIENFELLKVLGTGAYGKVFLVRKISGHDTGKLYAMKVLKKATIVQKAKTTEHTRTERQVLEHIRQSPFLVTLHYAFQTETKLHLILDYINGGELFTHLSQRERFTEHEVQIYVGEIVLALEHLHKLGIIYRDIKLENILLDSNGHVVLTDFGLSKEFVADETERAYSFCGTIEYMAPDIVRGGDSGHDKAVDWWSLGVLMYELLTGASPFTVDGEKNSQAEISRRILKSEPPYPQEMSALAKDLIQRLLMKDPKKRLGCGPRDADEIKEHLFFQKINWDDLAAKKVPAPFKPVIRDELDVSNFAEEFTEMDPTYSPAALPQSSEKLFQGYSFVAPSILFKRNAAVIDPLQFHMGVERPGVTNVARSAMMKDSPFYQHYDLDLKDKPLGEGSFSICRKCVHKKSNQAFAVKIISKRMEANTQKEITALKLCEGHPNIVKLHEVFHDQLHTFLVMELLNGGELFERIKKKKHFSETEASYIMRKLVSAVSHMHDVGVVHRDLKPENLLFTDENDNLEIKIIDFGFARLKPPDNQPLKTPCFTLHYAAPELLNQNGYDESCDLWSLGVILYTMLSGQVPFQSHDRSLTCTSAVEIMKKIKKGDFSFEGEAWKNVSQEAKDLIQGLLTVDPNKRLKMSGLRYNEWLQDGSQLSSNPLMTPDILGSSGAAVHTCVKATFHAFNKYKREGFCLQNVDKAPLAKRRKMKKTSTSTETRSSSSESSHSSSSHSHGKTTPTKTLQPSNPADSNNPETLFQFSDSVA
Outline: as §1

HIPK2 = target: T24, HIPK2 (Homo sapiens, UniProt Q9H2X6)
T24 construct: purchased ProQinase GmbH (Reaction Biology)
Outline: as §1

PYK2 = target: T25, PYK2 (Homo sapiens, UniProt Q14289)
T25 construct: either as full-length or enzymatically active fragments; purchased ProQinase GmbH (Reaction Biology)
Outline: as §1

PRKG2 = target: T26, PRKG2 (Homo sapiens, UniProt Q13237)
T26 construct: either as full-length or enzymatically active fragments; purchased ProQinase GmbH (Reaction Biology)
T26 sequence (Q13237 whole entry, the tested form may be a part): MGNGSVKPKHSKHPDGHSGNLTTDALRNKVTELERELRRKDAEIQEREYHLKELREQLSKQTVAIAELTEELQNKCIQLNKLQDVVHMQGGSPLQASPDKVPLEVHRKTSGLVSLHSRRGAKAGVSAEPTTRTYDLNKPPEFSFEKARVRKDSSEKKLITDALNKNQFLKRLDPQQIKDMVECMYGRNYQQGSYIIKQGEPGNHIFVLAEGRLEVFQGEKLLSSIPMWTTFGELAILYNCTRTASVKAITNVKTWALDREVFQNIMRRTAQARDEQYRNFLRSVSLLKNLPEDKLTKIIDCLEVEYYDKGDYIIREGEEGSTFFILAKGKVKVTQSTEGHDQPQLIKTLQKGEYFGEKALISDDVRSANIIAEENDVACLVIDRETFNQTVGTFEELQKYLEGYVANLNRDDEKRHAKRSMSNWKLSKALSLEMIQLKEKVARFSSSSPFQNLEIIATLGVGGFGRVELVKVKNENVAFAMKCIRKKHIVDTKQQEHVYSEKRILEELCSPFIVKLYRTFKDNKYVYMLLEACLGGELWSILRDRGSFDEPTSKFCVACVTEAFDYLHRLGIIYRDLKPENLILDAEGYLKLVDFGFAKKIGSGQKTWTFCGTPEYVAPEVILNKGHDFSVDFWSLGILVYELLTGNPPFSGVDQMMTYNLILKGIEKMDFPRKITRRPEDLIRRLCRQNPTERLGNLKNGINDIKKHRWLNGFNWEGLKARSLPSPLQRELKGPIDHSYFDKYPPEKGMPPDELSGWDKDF
Outline: as §1

CDK5/p25NCK = target: T27, CDK5/p25NCK (Homo sapiens, UniProt Q00535)
T27 construct: either as full-length or enzymatically active fragments; purchased ProQinase GmbH (Reaction Biology)
Outline: as §1

SGK1 = target: T28, SGK1 (Homo sapiens, UniProt O00141)
T28 construct: purchased ProQinase GmbH (Reaction Biology)
T28 sequence (O00141 whole entry): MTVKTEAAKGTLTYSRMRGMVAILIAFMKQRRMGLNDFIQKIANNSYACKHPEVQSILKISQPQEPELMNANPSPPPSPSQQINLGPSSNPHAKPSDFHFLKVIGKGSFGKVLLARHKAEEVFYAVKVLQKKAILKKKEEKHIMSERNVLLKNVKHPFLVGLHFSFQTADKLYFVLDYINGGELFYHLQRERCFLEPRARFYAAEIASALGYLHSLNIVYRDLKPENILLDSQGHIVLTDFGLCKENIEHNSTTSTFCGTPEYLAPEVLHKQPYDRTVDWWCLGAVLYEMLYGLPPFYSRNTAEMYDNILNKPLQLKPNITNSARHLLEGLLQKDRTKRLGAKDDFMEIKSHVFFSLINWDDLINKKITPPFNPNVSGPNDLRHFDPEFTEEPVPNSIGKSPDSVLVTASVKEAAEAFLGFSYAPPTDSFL
Outline: as §1

MST1 = target: T29, MST1 (Homo sapiens, UniProt Q13043)
T29 construct: purchased ProQinase GmbH (Reaction Biology); host or cells: Sf9 insect cells or E. coli (not specified per kinase)
Outline: as §1

SLK = target: T30, SLK (Homo sapiens, UniProt Q9H2G2)
T30 construct: either as full-length or enzymatically active fragments; purchased ProQinase GmbH (Reaction Biology)
Outline: as §1

SRPK2 = target: T31, SRPK2 (Homo sapiens, UniProt P78362)
T31 construct: purchased ProQinase GmbH (Reaction Biology)
T31 sequence (P78362 whole entry): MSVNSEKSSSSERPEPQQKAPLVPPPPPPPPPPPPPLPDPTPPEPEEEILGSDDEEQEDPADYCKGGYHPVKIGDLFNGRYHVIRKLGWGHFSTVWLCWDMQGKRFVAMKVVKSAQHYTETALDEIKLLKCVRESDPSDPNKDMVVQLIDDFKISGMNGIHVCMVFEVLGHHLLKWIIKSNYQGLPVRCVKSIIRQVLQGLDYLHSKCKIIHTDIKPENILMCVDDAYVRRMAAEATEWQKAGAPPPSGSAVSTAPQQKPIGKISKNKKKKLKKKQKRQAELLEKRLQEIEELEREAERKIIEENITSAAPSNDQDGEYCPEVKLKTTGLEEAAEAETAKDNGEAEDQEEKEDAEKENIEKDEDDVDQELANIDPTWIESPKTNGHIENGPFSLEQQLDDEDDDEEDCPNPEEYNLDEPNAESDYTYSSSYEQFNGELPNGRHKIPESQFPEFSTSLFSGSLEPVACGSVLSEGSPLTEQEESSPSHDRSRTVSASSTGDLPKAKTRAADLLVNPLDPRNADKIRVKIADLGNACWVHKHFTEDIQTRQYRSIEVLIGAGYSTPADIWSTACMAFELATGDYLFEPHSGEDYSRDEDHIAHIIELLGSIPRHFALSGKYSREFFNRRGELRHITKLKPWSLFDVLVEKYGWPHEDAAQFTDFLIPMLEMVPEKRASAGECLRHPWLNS
Outline: as §1

C=CC(=O)Nc1ccc(C(=O)N2CC[C@@H](Nc3ncc(C#N)cn3)C2)cc1 [Compound 4, (R)-N-(4-(3-((5-cyanopyrimidin-2-yl)amino)pyrrolidine-1-carbonyl)phenyl)acrylamide]
inhibition at 1 µM (SIK3): 8% | inhibition at 1 µM (DYRK1A): 7% | inhibition at 1 µM (WNK3): -6% | inhibition at 1 µM (PASK): -5% | inhibition at 1 µM (CHK1): 3% | inhibition at 1 µM (ERBB2): 5% | inhibition at 1 µM (PKCeta): -14% | inhibition at 1 µM (MAP4K5): 0% | inhibition at 1 µM (TTBK1): -5% | inhibition at 1 µM (INSR): 8% | inhibition at 1 µM (LYN): -8% | inhibition at 1 µM (STK33): 5% | inhibition at 1 µM (TIE2): -18% | inhibition at 1 µM (PRKX): -7% | inhibition at 1 µM (PIM3): 4% | inhibition at 1 µM (p38beta): 8% | inhibition at 1 µM (IKKepsilon): 7% | inhibition at 1 µM (CK1alpha1): 12% | inhibition at 1 µM (GRK5): -6% | inhibition at 1 µM (PAK6): 4% | inhibition at 1 µM (SNARK): 0% | inhibition at 1 µM (EPHA7): -3% | inhibition at 1 µM (RPS6KA5): 10% | inhibition at 1 µM (HIPK2): 0% | inhibition at 1 µM (PYK2): 4% | inhibition at 1 µM (PRKG2): -6% | inhibition at 1 µM (CDK5/p25NCK): 3% | inhibition at 1 µM (SGK1): -2% | inhibition at 1 µM (MST1): 1% | inhibition at 1 µM (SLK): 21% | inhibition at 1 µM (SRPK2): 0%
